Counter-ions that a name gives are not always drawn. Like-named read-outs stand apart in the source and are kept apart here.
Assays:
β1 -adrenoceptor = test: Overall hypotension and β1-adrenoceptor antagonism from the above data; settings: in vivo
Description: (§1) Compounds were dosed following dissolution in distilled water or in polyethylene glycol and dilution with 0.9% saline. The compounds were then administered intravenously. The blood pressure and heart rate were monitored directly, from a polythene cannula placed in the carotid artery. The doses required to lower blood pressure by 40 mm Hg, when administered intravenously, were obtained from a dose response graph.
(§2) The doses required to inhibit isoprenaline-induced tachycardia by 50% (ID50) were obtained after intravenous administration.
(§3) Furthermore they have minimal intrinsic sympathomimetic activity as shown by the absence of a tachycardia in spontaneously beating guinea pig right atria. The compound of Example 1 produced a maximal increase of approximately 10% of the maximal isoprenaline induced tachycardia in an anaesthetised ganglion blocked cat.

β1 -receptors [1] = biological target: T1, β1 -receptors (Felis catus, UniProt Q9TST6); test: β-Adrenoceptor antagonist activity: inhibition of isoprenaline-induced tachycardia in ganglion blocked anaesthetised cats; type: in vivo, cat; settings: for ED50: cat, iv, read-out: ID50 (inhibition of isoprenaline-induced tachycardia by 50%); for ED50 / ID50 (inhibition of isoprenaline-induced tachycardia by 50%): ganglion blocked anaesthetised cats, intravenous
T1 construct: from tissue; host or cells: living anaesthetised cat (in vivo)
T1 sequence (Q9TST6 whole entry): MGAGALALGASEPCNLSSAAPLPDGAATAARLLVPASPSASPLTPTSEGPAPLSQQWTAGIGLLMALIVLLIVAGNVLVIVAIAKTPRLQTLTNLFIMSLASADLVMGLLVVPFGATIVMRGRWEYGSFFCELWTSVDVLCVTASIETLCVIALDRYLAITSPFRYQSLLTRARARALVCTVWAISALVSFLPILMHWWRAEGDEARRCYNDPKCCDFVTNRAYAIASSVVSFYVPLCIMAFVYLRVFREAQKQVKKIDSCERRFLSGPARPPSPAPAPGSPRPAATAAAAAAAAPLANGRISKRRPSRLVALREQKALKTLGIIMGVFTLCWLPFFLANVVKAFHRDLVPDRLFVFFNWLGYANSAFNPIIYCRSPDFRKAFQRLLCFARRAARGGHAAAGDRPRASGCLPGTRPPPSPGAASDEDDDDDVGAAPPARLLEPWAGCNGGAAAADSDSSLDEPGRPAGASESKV
From the text: as §2

[2] = Anti-hypertensive activity: fall in blood pressure in anaesthetised rats, intravenous; type: in vivo, rat; settings: from dose response graph; for ED (40 mm Hg): Rattus norvegicus, iv, read-out: dose required to lower blood pressure by 40 mm Hg
Description: as §1

[3] = Vasodilator activity: increase in blood flow in autoperfused anaesthetised rat hindquarters; type: in vivo; settings: for ED (50% increase): Rattus norvegicus, read-out: dose required to increase hindquarters blood flow by 50%
From the text: The doses required to increase hindquarters blood flow by 50% were obtained.

[4] = Intrinsic sympathomimetic activity (tachycardia) in anaesthetised ganglion blocked cat; type: in vivo
From the text: as §3

[5] = Anti-hypertensive activity in conscious cats, oral; type: in vivo, cat; settings: 19 μmol Kg^-1 (Example 1 base), 16 μmol Kg^-1 (Example 4 methanesulphonate); for changes in heart rate: at least 2 hours
β1 -receptors [6] = biological target: T1, β1 -receptors; test: β-Adrenoceptor antagonist activity: inhibition of isoprenaline-induced tachycardia in ganglion blocked anaesthetised cats; type: in vivo, cat; settings: prizidilol at doses giving a similar effect
[7] = Hypotension and aortic blood flow in anaesthetised cats; type: in vivo, cat; settings: 4 μmol Kg^-1 (base) and 7 μmol Kg^-1 (hydrochloride)
[8] = Blood pressure in conscious spontaneously hypertensive rats, intravenous and oral; type: in vivo, spontaneously hypertensive rat
[9] = Observation of toxic effects in conscious spontaneously hypertensive rats, oral; type: in vivo, spontaneously hypertensive rat; settings: doses up to a maximum of 102 μmol Kg^-1
[10] = tested on: isolated intact guinea pig trachea; test: Bronchodilatation: spontaneous tone of isolated intact guinea pig trachea; settings: bath concentration 1 μg ml^-1
Description: The compound of Example 4 (as methanesulphonate) (at a bath concentration of 1 μg ml^-1) caused a 50% reduction in the spontaneous tone of an isolated intact guinea pig trachea, as assessed by the method of Coleman R. A. and Farmer J. B. (1971), J. Pharm.

[11] = administration intra-arterially
[12] = iv, administration intravenously

CC1CC(=O)NN=C1c1ccc(NC(=O)CCNC[C@H](O)COc2ccc(CCOCC3CC3)cc2)cc1 (single isomer, unassigned; (-)) [Example 11, (-)-6-[4-[3-[2-(-)-Hydroxy-3-[4-(2-(cyclopropylmethoxy)ethyl)phenoxy]propylamino]propionamido]phenyl]-5-methyl-4,5-dihydro-3(2H)-pyridazione[(-) (-)isomer]]
prolonged hypotension and β1-adrenoceptor antagonism over the same dose range (β1 -adrenoceptor): cause prolonged hypotension and β1 -adrenoceptor antagonism over the same dose range | ED50 (β1 -receptors [1]): 1.6 µmol/kg | ED (40 mm Hg) [2]: 2.1 µmol/kg | ED (50% increase) [3, 11]: 1.1 µmol/kg

CC1CC(=O)NN=C1c1ccc(NC(=O)CCNCC(O)COc2ccc(CCOCC3CC3)cc2)cc1 (centres unmarked) [Example 1 as hydrochloride, 6-[4-[3-[2-Hydroxy-3-[4-(2-(cyclopropylmethoxy)ethyl)phenoxy]propylamino]propionamido]phenyl]-5-methyl-4,5-dihydro-3(2H)-pyridazinone]
prolonged hypotension and β1-adrenoceptor antagonism over the same dose range (β1 -adrenoceptor): cause prolonged hypotension and β1 -adrenoceptor antagonism over the same dose range | ID50 (inhibition of isoprenaline-induced tachycardia by 50%) (β1 -receptors [1]; listed as 1, as hydrochloride): 4.3 µmol/kg | dose required to lower blood pressure by 40 mm Hg ([2]; listed as 1, as hydrochloride): 4.0 µmol/kg | dose required to increase hindquarters blood flow by 50% ([3]; administration intravenously, listed as 1, as hydrochloride): 4.0 µmol/kg

CC1CC(=O)NN=C1c1ccc(NC(=O)CCNCC(O)COc2ccc(CCOCC3CC3)cc2)cc1 (centres unmarked) [Example 1, 6-[4-[3-[2-Hydroxy-3-[4-(2-(cyclopropylmethoxy)ethyl)phenoxy]propylamino]propionamido]phenyl]-5-methyl-4,5-dihydro-3(2H)-pyridazinone]
prolonged hypotension and β1-adrenoceptor antagonism over the same dose range (β1 -adrenoceptor): cause prolonged hypotension and β1 -adrenoceptor antagonism over the same dose range | maximal increase, of the maximal isoprenaline induced tachycardia [4]: approximately 10% | period of blood pressure reduction with minimal heart rate change [5]: at least 2 hours | reductions in blood pressure [5]: reductions in blood pressure | changes in heart rate [5]: minimal changes in heart rate | duration of inhibition of isoprenaline-induced tachycardia (β1 -receptors [6]): prolonged duration of inhibition | ID50 (inhibition of isoprenaline-induced tachycardia by 50%) (β1 -receptors [1]; as base): 1.9 µmol/kg | selectivity for β1-receptors (β1 -receptors [1]; in vivo): evidence that this compound has selectivity for β1 -receptors | changes in aortic blood flow [7]: minimal changes in aortic blood flow | hypotension [7]: significant dose-dependent hypotension | dose required to lower blood pressure by 40 mm Hg ([2]; as base): 8.0 µmol/kg | dose required to increase hindquarters blood flow by 50% ([3]; administration intravenously, as base): 11.5 µmol/kg

CCCc1cc(CCOCC2CC2)ccc1OCC(O)CNCCC(=O)Nc1ccc(C2=NNC(=O)CC2C)cc1 (centres unmarked) [Example 2, 6-[4-[3-[2-Hydroxy-3-[2-n-propyl-4-(2-(cyclopropylmethoxy)ethyl)phenoxy]propylamino]propionamido]phenyl]-5-methyl-4,5-dihydro-3(2H)-pyridazinone]
ED50 (β1 -receptors [1]): 8.63 µmol/kg | ED (40 mm Hg) [2]: 3.15 µmol/kg | ED (50% increase) [3, 12]: 1.43 µmol/kg

Cc1cc(CCOCC2CC2)ccc1OCC(O)CNCCC(=O)Nc1ccc(C2=NNC(=O)CC2C)cc1 (centres unmarked) [Example 3, 6-[4-[3-[2-Hydroxy-3-[2-methyl-4-(2-(cyclopropylmethoxy)ethyl)phenoxy]propylamino]propionamido]phenyl]-5-methyl-4,5-dihydro-3(2H)-pyridazinone]
ED50 (β1 -receptors [1]): 7.84 µmol/kg | ED (40 mm Hg) [2]: 2.95 µmol/kg | ED (50% increase) [3, 12]: 1.95 µmol/kg

CC1CC(=O)NN=C1c1ccc(NC(=O)CCNCC(O)COc2ccc(CCOCC3CC3)cc2)cc1 (centres unmarked) [Example 4, 6-[4-[3-[2-Hydroxy-3-[4-(2-(cyclopropylmethoxy)ethyl)phenoxy]propylamino]propionamido]phenyl]-5-methyl-4,5-dihydro-3(2H)-pyridazinone]
duration of prolonged, significant reductions in blood pressure (up to and including, post dose) ([8]; intravenous, 3 to 13 μmol Kg^-1): 5 h | fall in blood pressure ([8]; intravenous, three dose levels from 3 to 13 μmol Kg^-1): significant fails in blood pressure | duration of prolonged, significant reductions in blood pressure (up to and including, post dose) ([8]; oral, 25 to 102 μmol Kg^-1): 5 h | hypotensive effect ([8]; oral, three doses from 25 to 102 μmol Kg^-1): significant hypotensive effect | prolonged hypotension and β1-adrenoceptor antagonism over the same dose range (β1 -adrenoceptor): cause prolonged hypotension and β1 -adrenoceptor antagonism over the same dose range | toxic effects [9]: no toxic effects were observed | period of blood pressure reduction with minimal heart rate change [5]: at least 2 hours | reductions in blood pressure [5]: reductions in blood pressure | changes in heart rate [5]: minimal changes in heart rate | ID50 (inhibition of isoprenaline-induced tachycardia by 50%) (β1 -receptors [1]; as methanesulphonate): 1.4 µmol/kg | inhibition of the reduction in tracheal tone by propanolol [10]: not inhibited by propanolol | reduction in spontaneous tone of trachea [10]: 50% | dose required to lower blood pressure by 40 mm Hg ([2]; as methanesulphonate): 2.8 µmol/kg | ED (50% increase) [3, 11]: 1.7 µmol/kg | duration of vasodilatation ([3]; autoperfused anaesthetised rat hindquarters): prolonged duration of vasodilatation

CC(C)(C)NCC(O)COc1ccccc1-c1ccc(NN)nn1 (centres unmarked) [Prizidilol, reference compound]
duration of inhibition of isoprenaline-induced tachycardia (β1 -receptors [6]): short duration of inhibition | ED (40 mm Hg) [2]: 14 µmol/kg | ED (50% increase) [3, 11]: 10 µmol/kg

Reference: US4652563A, “Vasodilators and β-adrenoceptor antagonists” (Smith Kline & French Laboratories Ltd., priority 1984, dated 1987)
